This note sets out measurements from patent US11708391B2, “Rapaglutins, novel inhibitors of GLUT and use thereof” (The Johns Hopkins University, priority 2016, dated 2023).

Where two headings read alike, the source gives them in different places.

Assay [1] concerns the target T1, GLUT1 (Homo sapiens, UniProt P11166).
T1 construct: endogenous in cells; host or cells: erythrocyte (RBC-derived) ghosts
T1 sequence (P11166 1-492): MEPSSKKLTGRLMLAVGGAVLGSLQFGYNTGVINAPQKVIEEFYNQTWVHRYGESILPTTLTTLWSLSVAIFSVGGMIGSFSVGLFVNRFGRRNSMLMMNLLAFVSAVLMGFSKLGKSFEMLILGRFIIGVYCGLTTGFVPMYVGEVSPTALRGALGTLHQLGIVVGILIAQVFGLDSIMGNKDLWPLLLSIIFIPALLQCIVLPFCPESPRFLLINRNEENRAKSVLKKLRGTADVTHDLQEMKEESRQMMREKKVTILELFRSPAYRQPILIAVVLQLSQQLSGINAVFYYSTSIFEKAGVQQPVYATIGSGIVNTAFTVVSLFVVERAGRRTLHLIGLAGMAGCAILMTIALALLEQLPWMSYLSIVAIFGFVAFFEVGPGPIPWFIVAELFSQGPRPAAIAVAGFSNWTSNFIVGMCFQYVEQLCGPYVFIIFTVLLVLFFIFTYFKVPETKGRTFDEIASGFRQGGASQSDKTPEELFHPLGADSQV
Briefly: 3-O-methyl-D-[3H] glucose uptake in RBC-derived ghosts. The assay is classed as cell-based. The text has this:
FIGS. 3A-3D. Inhibition of Glucose Transport by A18 and E11. (a) Inhibition of 3-O-methyl-D-[3H] glucose uptake in human red blood cells by A18. (b) Inhibition of 3-O-methyl-D-[3H] glucose uptake in human red blood cells by E11. (c) Inhibition of 3-O-methyl-D-[3H] glucose uptake in erythrocyte ghosts by A18. (d) Inhibition of 3-O-methyl-D-[3H] glucose uptake in erythrocyte ghosts by E11.
A18 and E11 were previously shown to have a broad spectrum of anticancer activity. […] To test this hypothesis, red blood cells (RBCs) were applied as a cell model because RBCs express Glut1 as their sole glucose transporter and have been frequently used in studying glucose transport. […] To eliminate other possibilities, the glucose uptake assays were repeated in RBC-derived ghosts, in which all the intracellular proteins and enzymes were removed and only membrane-bound and membrane-associated proteins remained. […] (see FIGS. 2, 3 and 15-18)

The test system of a further assay is DLD-1 wild type. Briefly: 2-deoxy-D-[3H] glucose uptake in DLD-1 wild type cells. The assay is classed as cell-based. An excerpt:
(§1) FIGS. 4A-4B. E11 is a specific inhibitor of Glut1. (a) Glut1 protein levels of DLD-1 wild type and knock out cells analyzed by western blotting. (b) Inhibition of 2-deoxy-D-[3H] glucose uptake in DLD-1 wild type and knock out cells by E11 or A18.
(§2) Up to now, at least 14 different isoforms of GLUTs have been identified in human cells. It was then asked whether A18 and E11 are specific inhibitors of GLUT1. To answer this question, colon cancer DLD-1 wild type and GLUT1 gene knock out cell lines were chosen as a cell model (FIG. 4a). […] GLUTs that are most relevant to cancer are Glut1 and Glut3. To obtain additional evidence, Glut1 and Glut3 in HEK 293T cells were overexpressed and an alamar blue cell viability assay was performed again. […] (see FIGS. 4, 19, 20, 26; Table 4).

The test system of another assay is A549 lung cancer cells. Briefly: alamar blue cell viability assay, A549. The assay is classed as cell-based, human. The text has this: FIG. 9. Heat map of the screening results. Scale: 0 (red), complete inhibition; 1 (green), no inhibition. Screening of the rapafucin library for toxicity hits against A549 lung cancer cells using alamar blue assay.
A 45,000 compound and 3000 pool rapafucin library were screened using the alamar blue cell viability assay with the human non-small cell lung cancer (NSCLC) cell line A549. […] Several potent rapafucin hits were discovered to inhibit cell proliferation of A549. […] Each was resynthesized on preparative scale, purified by silica gel chromatography, followed by HPLC purification, and subjected to a series of detailed structure characterization (schemes I and II; FIGS. 10-14).
(§3) Dose-dependent inhibition of cell proliferation by A18 and E11 was next evaluated in several other human cancer cell lines, including breast cancer HCC1954, pancreatic cancer PANC10.05, leukemia Jurkat T and colon cancer RKO (FIGS. 1b and 1c). […] (FIGS. 1 and 9; Table 3)

In another assay the test system is HEK293T. In words: alamar blue assay, HEK293T. The assay is classed as cell-based.
From the text: as §3, §2

The next assay deals with HEK 293T. In words: flow cytometric cell cycle analysis in HEK 293T. The assay is classed as cell-based. As to conditions: 5 μM, 24 h. The procedure:
FIGS. 25A-25C. A18 and E11 inhibit cell cycle progression in the S phase. HEK 293T were incubated with DMSO (a), 5 μM A18 (b) or 5 μM E11 (c) for 24 h before they were harvested for cell cycle analysis.

The subject of assay [2] is pancreatic cancer PANC10.05. In words: alamar blue assay, PANC10.05. The assay is classed as cell-based, human. The settings on record: PANC 10.05.
From the text: as §3

The next assay has as its system HEK 293T FLAG-Glut3. Briefly: alamar blue assay, HEK 293T Glut3 overexpression cells. The assay is classed as cell-based.
From the text: FIGS. 20A-20C. E11 is a specific inhibitor of Glut1. (a) Glut1 and Glut3 protein levels of wild type, Glut1 and Glut3 overexpression cells analyzed by western blotting. (b)(c) Inhibition of cell proliferation in HEK293T, Glut1 and Glut3 overexpression cells by A18 and E11.
as §2

Assay [3] concerns DLD-1 GLUT1 gene knock out cells. Briefly: 2-deoxy-D-[3H] glucose uptake in DLD-1 GLUT1 knock out cells. The assay is classed as cell-based.
From the text: as §1, §2

The target in assay [4] is T1, GLUT1. In words: pulldown with biotin-rapafucin conjugates from RBC-derived ghosts lysate, anti-GLUT1 Western blot. The assay is classed as binding. The settings on record: for binding to GLUT1 in pulldown assay: RBC-derived ghosts cell lysate, Western blot; for competition of the binding of the other rapafucin's probe to GLUT1: pulldown, A18 probe versus E11 and vice versa. The text has this:
FIGS. 6A-6B. Identification of direct interaction of A18 and E11 to Glut1. Glut1 protein levels of A18 (a) or E11 (b) pull down samples analyzed by western blotting.
After showing that GLUT1 was very likely to be the target of A18 and E11, the direct interaction of A18 and E11 to GLUT1 was then examined. A series of biotin or diazrine-alkyne rapafucin conjugates through different positions were synthesized. […] Importantly, the binding of the biotin-rapafucin probe to GLUT1 is competed by rapafucin. […] (FIGS. 6, 21, 22 and 27)

The next assay concerns breast cancer HCC1954. Briefly: alamar blue assay, HCC1954. The assay is classed as cell-based, human.
From the text: as §3

`CC[C@@H](C)[C@H]1C(=O)NCC(=O)N(C)CC/C=C/C(=O)OCC(C)(C)C(=O)C(=O)N2CCCC[C@H]2C(=O)O[C@H](CCc2ccc(OC)c(OC)c2)c2cccc(c2)NC(=O)CCC(=O)N(C)[C@@H](CC(C)C)C(=O)N[C@H](Cc2ccccc2)C(=O)N1C` [A18]: the IC50 turned out to be 49.5 nM against GLUT1 [1]; 189 nM with A549 lung cancer cells (Homo sapiens); 110 nM with HEK293T (Homo sapiens, HEK-293T, HEK293T, Table 3); 69 nM in the assay with HEK293T (Homo sapiens, HEK-293T, HEK 293T, Table 4); 119 nM in [2] (Homo sapiens, Panc1005); 2350 nM in the assay on HEK 293T FLAG-Glut3 (Homo sapiens, HEK 293T FLAG-Glut3). This compound also yielded an IC50 in the assay on breast cancer HCC1954 (Homo sapiens) of 109 nM. The “inhibition of 2-deoxy-D-glucose uptake” value (with DLD-1 wild type; in assay [3]) was “strongly inhibited” each time. The “additional cells in S phase” value with HEK 293T is recorded as “approximately 10%”. Further, the “binding to GLUT1 in pulldown assay” value on GLUT1 [4] was “can bind directly to GLUT1”. Moreover, on GLUT1 [4], the “competition of the binding of the other rapafucin's probe to GLUT1” value is reported as “vice versa”.
As to Gly-^MSerBu-Nal-^MAla [E11], the IC50 glucose uptake entry against GLUT1 [1] is on record as “totally lost its inhibitory activity”. Also, the figures for the “inhibition of 2-deoxy-D-glucose uptake” value (with DLD-1 wild type; in assay [3]) were “kept inhibitory activity” and “didn't show any inhibition”, respectively. The IC50 came out at 367 nM in the assay with A549 lung cancer cells; 154 nM in the assay on HEK293T (HEK293T, Table 3); 84.8 nM with HEK293T (HEK 293T, Table 4); 79.8 nM in assay [2]; 159 nM in the assay on breast cancer HCC1954. The “additional cells in S phase” value with HEK 293T is on record as “approximately 10%”. Also, the “inhibition in alamar blue cell viability assay” value in the assay with HEK 293T FLAG-Glut3 (GLUT3 overexpression HEK 293T cells) is “didn't show any inhibition”. The “IC50 alamar blue assay” value in the assay on HEK 293T FLAG-Glut3 (HEK 293T FLAG-Glut3) is recorded as “No activity”. Besides, on GLUT1 [4], the “binding to GLUT1 in pulldown assay” value is on record as “can bind directly to GLUT1”. Besides, at GLUT1 [4], the “competition of the binding of the other rapafucin's probe to GLUT1” value was “cannot be competed”.
